Source: patent US20120245137A1 (Zalicus Pharmaceuticals Ltd., priority 2009, published 2012)
Read-outs that look alike come from different tables or passages of the source.

Key:
Format in all cases: cell-based
[1] = molecular target: Human Cav 2.2 channels (Homo sapiens, UniProt Q00975); test: Fluorescent assay for CaV2.2 channels using potassium depolarization (VIPR/FLIPR); conditions: FLIPR data
Text: Human Cav 2.2 channels were stably expressed in HEK293 cells along with alpha2-delta and beta subunits of voltage-gated calcium channels. An inwardly rectifying potassium channel (Kir2.3) was also expressed in these cells to allow more precise control of the cell membrane potential by extracellular potassium concentration. At low bath potassium concentration, the membrane potential is relatively negative, and is depolarized as the bath potassium concentration is raised. In this way, the bath potassium concentration can be used to regulate the voltage-dependent conformations of the channels. […] After the incubation period, Cav2.2 channel opening is triggered by addition of higher concentration of potassium (70 mM final concentration) to further depolarize the cell. The degree of state-dependent block can be estimated from the inhibitory potency of compounds after incubation in different potassium concentrations.
Calcium influx through Cav 2.2 channels is determined using a calcium sensitive fluorescent dye in combination with a fluorescent plate reader. Fluorescent changes were measured with either a VIPR (Aurora Instruments) or FLIPR (Molecular Devices) plate reader.
1. Seed cells in Poly-D-Lysine Coated 96 or 384-well plate and keep in a 3rC-IO % C02 incubator overnight.
2. Remove media, wash cells with 0.2 mL (96-well plate) or 0.05 mL (384-well plate) Dulbecco's Phosphate Buffered Saline (D-PBS) with calcium & magnesium (Invitrogen; 14040).
3. Add 0.1 mL (96-well plate) or 0.05 mL (384-well plate) of 4˜M fluor-4 (Molecular Probes; F-14202) and 0.02% Pluronic acid (Molecular Probes; P-3(00) prepared in D-PBS with calcium & magnesium (Invitrogen; 14040) supplemented with 10 mM Glucose & 10 mM HepeslNaOH; pH 7.4.
4. Incubate in the dark at 25° C. for 60-70 min.
5. Remove dye, wash cells with 0.1 mL (96-well plate) or 0.06 mL (384-well plate) of 4, 12, 25, or 30 mM Potassium Pre-polarization Buffer (PPB).
6. Add 0.1 mL (96-well plate) or 0.03 mL (384-well plate) of 4, 12, 25, 30 mM PPB with or without test compound.
7. Incubate in the dark at 25° C. for 30 min
8. Read cell plate on VIPR instrument, Excitation=480 nm, Emission=535 nm.
9. With VIPR continuously reading, add 0.1 mL (96-well plate) or 0.03 mL (384-well plate) of Depolarization Buffer (DB), which is 2× the final assay concentration, to the cell plate.

[2] = molecular target: CAv1.2 (Homo sapiens, UniProt Q13936); test: FLIPR data, CAv1.2 channel blocking (Table 6)
CAv1.2, sequence (Q13936 whole entry): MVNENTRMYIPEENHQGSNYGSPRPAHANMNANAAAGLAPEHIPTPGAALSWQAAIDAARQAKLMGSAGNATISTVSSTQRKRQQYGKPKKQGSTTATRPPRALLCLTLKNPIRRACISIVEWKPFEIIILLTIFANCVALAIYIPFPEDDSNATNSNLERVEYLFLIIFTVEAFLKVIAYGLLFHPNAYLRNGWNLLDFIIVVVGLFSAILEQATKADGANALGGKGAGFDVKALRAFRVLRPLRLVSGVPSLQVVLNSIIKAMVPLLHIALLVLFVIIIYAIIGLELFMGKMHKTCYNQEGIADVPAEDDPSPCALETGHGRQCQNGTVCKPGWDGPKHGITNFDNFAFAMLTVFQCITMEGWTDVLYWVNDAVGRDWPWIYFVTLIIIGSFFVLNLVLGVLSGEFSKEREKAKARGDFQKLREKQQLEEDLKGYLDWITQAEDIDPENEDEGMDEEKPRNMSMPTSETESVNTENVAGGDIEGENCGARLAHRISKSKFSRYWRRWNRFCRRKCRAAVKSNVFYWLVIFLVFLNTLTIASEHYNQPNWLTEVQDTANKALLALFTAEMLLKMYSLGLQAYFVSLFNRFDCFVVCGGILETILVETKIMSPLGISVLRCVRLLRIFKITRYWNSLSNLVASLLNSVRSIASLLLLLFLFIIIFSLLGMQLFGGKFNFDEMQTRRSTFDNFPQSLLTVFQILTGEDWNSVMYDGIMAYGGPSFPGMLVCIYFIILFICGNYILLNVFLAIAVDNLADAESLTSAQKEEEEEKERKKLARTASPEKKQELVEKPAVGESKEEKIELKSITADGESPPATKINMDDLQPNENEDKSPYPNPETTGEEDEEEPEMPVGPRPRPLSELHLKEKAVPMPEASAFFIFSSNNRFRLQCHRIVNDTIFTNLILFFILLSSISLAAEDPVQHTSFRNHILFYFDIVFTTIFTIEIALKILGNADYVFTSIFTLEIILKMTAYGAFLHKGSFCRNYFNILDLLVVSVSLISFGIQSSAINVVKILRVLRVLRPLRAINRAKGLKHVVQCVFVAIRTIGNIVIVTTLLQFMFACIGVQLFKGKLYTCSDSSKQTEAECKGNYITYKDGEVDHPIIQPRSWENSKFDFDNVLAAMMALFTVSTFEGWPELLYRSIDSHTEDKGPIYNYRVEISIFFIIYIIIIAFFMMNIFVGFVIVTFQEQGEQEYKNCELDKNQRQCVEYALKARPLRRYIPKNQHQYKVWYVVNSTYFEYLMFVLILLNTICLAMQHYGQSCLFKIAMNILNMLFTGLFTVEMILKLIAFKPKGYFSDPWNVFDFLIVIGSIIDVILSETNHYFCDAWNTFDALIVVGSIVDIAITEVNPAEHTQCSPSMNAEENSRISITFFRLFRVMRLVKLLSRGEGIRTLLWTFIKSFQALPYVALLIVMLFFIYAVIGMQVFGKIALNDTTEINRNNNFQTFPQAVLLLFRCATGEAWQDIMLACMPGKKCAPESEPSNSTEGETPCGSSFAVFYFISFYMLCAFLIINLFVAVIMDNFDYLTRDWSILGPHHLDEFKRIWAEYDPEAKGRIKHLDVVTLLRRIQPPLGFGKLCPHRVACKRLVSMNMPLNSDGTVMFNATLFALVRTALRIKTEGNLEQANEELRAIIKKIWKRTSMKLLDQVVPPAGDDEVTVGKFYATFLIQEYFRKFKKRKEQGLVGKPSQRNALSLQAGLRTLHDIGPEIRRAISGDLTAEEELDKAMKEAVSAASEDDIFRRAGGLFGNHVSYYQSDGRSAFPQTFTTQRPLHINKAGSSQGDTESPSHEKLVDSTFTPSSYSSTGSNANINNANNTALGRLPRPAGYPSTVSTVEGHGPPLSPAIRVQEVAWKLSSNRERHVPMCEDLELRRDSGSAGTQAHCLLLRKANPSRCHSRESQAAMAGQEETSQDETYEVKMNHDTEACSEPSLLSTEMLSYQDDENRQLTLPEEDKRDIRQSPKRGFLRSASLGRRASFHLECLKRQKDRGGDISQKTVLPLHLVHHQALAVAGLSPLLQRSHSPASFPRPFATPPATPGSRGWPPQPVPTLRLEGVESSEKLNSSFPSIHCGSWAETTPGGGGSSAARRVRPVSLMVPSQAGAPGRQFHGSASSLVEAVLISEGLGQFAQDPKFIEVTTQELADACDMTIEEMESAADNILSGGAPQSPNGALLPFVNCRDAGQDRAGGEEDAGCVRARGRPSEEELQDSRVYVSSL
CAv1.2, sequence (P54289 25-1103 partner): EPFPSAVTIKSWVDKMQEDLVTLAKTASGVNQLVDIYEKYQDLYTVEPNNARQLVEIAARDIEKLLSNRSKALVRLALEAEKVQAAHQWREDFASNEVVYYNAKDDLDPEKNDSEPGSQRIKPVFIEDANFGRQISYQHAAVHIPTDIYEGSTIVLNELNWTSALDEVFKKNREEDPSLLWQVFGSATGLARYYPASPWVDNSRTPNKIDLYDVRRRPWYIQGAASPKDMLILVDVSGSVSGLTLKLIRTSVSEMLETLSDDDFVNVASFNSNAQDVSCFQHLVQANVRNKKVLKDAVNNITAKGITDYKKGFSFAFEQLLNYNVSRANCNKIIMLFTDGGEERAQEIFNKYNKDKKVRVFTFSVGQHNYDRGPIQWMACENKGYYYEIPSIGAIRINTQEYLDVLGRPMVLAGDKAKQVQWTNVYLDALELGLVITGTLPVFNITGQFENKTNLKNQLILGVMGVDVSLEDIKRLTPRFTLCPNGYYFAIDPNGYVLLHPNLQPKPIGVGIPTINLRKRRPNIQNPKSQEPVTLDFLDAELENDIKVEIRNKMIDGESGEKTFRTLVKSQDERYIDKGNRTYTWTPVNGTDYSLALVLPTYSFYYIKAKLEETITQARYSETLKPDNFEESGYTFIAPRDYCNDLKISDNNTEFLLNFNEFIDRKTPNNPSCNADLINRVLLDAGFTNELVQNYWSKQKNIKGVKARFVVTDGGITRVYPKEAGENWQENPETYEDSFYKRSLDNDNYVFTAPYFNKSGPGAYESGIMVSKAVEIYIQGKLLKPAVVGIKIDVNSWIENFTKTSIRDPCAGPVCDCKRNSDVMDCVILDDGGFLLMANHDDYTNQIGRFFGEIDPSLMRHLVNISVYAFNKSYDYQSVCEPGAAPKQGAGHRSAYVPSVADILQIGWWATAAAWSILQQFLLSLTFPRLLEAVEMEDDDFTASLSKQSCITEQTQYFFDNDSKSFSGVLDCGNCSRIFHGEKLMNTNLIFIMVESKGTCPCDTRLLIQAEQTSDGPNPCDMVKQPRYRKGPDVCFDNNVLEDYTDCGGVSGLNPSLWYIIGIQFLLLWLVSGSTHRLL
CAv1.2, sequence (Q08289 whole entry partner): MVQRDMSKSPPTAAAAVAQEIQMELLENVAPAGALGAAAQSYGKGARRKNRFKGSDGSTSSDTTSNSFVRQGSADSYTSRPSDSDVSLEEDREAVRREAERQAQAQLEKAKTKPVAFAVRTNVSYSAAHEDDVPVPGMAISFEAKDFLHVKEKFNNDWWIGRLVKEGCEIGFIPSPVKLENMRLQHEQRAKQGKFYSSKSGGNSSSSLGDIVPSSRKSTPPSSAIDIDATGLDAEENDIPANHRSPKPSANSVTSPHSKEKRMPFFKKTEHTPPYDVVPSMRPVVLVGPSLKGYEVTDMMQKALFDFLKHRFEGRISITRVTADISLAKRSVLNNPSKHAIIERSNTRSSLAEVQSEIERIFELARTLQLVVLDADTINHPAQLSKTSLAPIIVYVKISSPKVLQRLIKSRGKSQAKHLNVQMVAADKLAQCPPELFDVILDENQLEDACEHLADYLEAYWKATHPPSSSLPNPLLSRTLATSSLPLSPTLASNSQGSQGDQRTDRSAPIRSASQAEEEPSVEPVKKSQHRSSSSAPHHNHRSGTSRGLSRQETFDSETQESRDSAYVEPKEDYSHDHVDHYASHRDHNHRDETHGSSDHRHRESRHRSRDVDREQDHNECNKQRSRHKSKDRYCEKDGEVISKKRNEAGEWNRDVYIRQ

[3] = molecular target: T-type calcium channel (Homo sapiens, UniProt O95180); test: T-type channel blocking, FLIPR data (Table 6)
Text: Another method, high-throughput spectrophotometric assay, utilizes loading of the cell lines with a fluorescent dye sensitive to intracellular calcium concentration and subsequent examination of the effects of compounds on the ability of depolarization by potassium chloride or other means to alter intracellular calcium levels.

[4] = closed state, read-out: CAv2.2 IC50 Closed
[5] = inactivated state, read-out: CAv2.2 IC50 Inact.
[6] = closed state, read-out: CAv1.2 IC50 Closed
[7] = CAv3.2, closed state, read-out: CAv3.2 IC50 Closed
[8] = CAv3.2, inactivated state, read-out: CAv3.2 IC50 Inact.
[9] = CAv3.2, ratio closed/inactivated IC50
[10] = inactivated state, read-out: CAv1.2 IC50 Inact.

SMILES: N[C@@H]1CCCC[C@H]1C(=O)NC[C@H]1C[C@H](S(=O)(=O)c2cccc(OC(F)(F)F)c2)C1 [Compound 714]
- IC50 [1, 4]: 5.77 µM
- IC50 [1, 5]: 2.29 µM
- CAv2.2 IC50 Ratio closed/inact. ([1]; ratio closed/inactivated IC50): 2.5
- IC50 [2, 6]: ≥ 10 µM
- IC50 [3, 7]: ≥ 10 µM
- IC50 [3, 8]: 10 µM
- CAv3.2 IC50 Ratio closed/inact. [3, 9]: 1

SMILES: CNC1(CC(=O)N[C@H]2C[C@@H](C(C)(C)S(=O)(=O)c3cc(F)cc(C(F)(F)F)c3)C2)CCCCC1 [Compound 658]
- IC50 [1, 4]: 10 µM
- IC50 [1, 5]: 2.64 µM
- CAv2.2 IC50 Ratio closed/inact. ([1]; ratio closed/inactivated IC50): 3.8
- IC50 [2, 6]: ≥ 10 µM
- IC50 [3, 7]: ≥ 10 µM
- IC50 [3, 8]: 10 µM
- CAv3.2 IC50 Ratio closed/inact. [3, 9]: 1

SMILES: CNC1(CC(=O)N[C@H]2C[C@H](C(C)(C)S(=O)(=O)c3cccc(OC(F)(F)F)c3)C2)CCCCC1 [Compound 662]
- IC50 [1, 4]: 5.65 µM
- IC50 [1, 5]: 1.25 µM
- CAv2.2 IC50 Ratio closed/inact. ([1]; ratio closed/inactivated IC50): 4.5
- IC50 [2, 6]: ≥ 10 µM
- IC50 [2, 10]: ≥ 10 µM
- IC50 [3, 8]: 10 µM

SMILES: CC(C)([C@H]1C[C@H](NC(=O)CC2(N)CCCCC2)C1)S(=O)(=O)c1cc(F)cc(C(F)(F)F)c1 [Compound 654]
- IC50 [1, 4]: 8.47 µM
- IC50 [1, 5]: 1.44 µM
- CAv2.2 IC50 Ratio closed/inact. ([1]; ratio closed/inactivated IC50): 5.9
- IC50 [2, 6]: ≥ 10 µM
- IC50 [2, 10]: ≥ 10 µM
- IC50 [3, 8]: 10 µM

SMILES: CC(C)([C@H]1C[C@@H](NC(=O)c2ccc(S(C)(=O)=O)cc2Cl)C1)S(=O)(=O)c1cccc(C(F)(F)F)c1 [Compound 577]
- IC50 [1, 4]: 10 µM
- IC50 [1, 5]: 0.64 µM
- CAv2.2 IC50 Ratio closed/inact. ([1]; ratio closed/inactivated IC50): 15.6
- IC50 [2, 6]: ≥ 10 µM
- IC50 [2, 10]: ≥ 10 µM

SMILES: CNC1(CC(=O)N[C@H]2C[C@@H](C(C)(C)S(=O)(=O)c3cccc(OC(F)(F)F)c3)C2)CCCCC1 [Compound 661]
- IC50 [1, 4]: 8.03 µM
- IC50 [1, 5]: 1.53 µM
- CAv2.2 IC50 Ratio closed/inact. ([1]; ratio closed/inactivated IC50): 5.2
- IC50 [2, 6]: ≥ 10 µM
- IC50 [2, 10]: ≥ 10 µM
- IC50 [3, 8]: 10 µM

SMILES: CC(C)([C@H]1C[C@H](NC(=O)c2ccc(S(C)(=O)=O)cc2Cl)C1)S(=O)(=O)c1cccc(C(F)(F)F)c1 [Compound 680]
- IC50 [1, 4]: 10 µM
- IC50 [1, 5]: 1.31 µM
- CAv2.2 IC50 Ratio closed/inact. ([1]; ratio closed/inactivated IC50): 7.6
- IC50 [3, 7]: ≥ 10 µM
- IC50 [3, 8]: 10 µM
- CAv3.2 IC50 Ratio closed/inact. [3, 9]: 1

SMILES: O=C(NC[C@H]1C[C@H](S(=O)(=O)c2cccc(Cl)c2)C1)c1cnc(C(F)(F)F)nc1 [Compound 773]
- IC50 [1, 5]: 9.88 µM
- CAv2.2 IC50 Ratio closed/inact. ([1]; ratio closed/inact.): 1
- IC50 [3, 7]: ≥ 10 µM
- IC50 [3, 8]: 10 µM
- CAv3.2 IC50 Ratio closed/inact. ([3]; CAv3.2, ratio closed/inact.): 1

SMILES: O=C(NC[C@H]1C[C@H](S(=O)(=O)c2cccc(OC(F)(F)F)c2)C1)c1ccc(OCC(F)(F)F)nc1 [Compound 699]
- IC50 [1, 4]: 7.86 µM
- CAv2.2 IC50 Ratio closed/inact. ([1]; ratio closed/inactivated IC50): 3.1
- IC50 [2, 6]: ≥ 10 µM
- IC50 [3, 7]: ≥ 10 µM
- CAv3.2 IC50 Ratio closed/inact. [3, 9]: 1

SMILES: CC(C)([C@H]1C[C@H](NC(=O)c2ncc(C(F)(F)F)cn2)C1)S(=O)(=O)c1cccc(C(F)(F)F)c1 [Compound 678]
- IC50 [1, 4]: 8.95 µM
- IC50 [1, 5]: 0.79 µM
- CAv2.2 IC50 Ratio closed/inact. ([1]; ratio closed/inactivated IC50): 11.3

SMILES: O=C(c1ccc(C(F)(F)F)cn1)N1CC(CS(=O)(=O)c2cc(F)cc(C(F)(F)F)c2)C1 [Compound 746]
- IC50 [1, 5]: ≥ 10 µM
- IC50 [3, 7]: ≥ 10 µM
- IC50 [3, 8]: 10 µM
- CAv3.2 IC50 Ratio closed/inact. ([3]; CAv3.2, ratio closed/inact.): 1

SMILES: N[C@H]1CCCC[C@H]1C(=O)NC[C@H]1C[C@H](S(=O)(=O)c2cccc(Cl)c2)C1 [Compound 778]
- IC50 [1, 5]: ≥ 10 µM
- IC50 [3, 8]: 10 µM

SMILES: Cc1nc(S(=O)(=O)N[C@H]2C[C@H](C(C)(C)S(=O)(=O)c3cccc(C(F)(F)F)c3)C2)cn1C [Compound 670]
- IC50 [1, 4]: 10 µM
- IC50 [1, 5]: 8.66 µM
- CAv2.2 IC50 Ratio closed/inact. ([1]; ratio closed/inactivated IC50): 1.2

SMILES: CNC1(CC(=O)N[C@H]2C[C@@H](C(C)(C)S(=O)(=O)c3cccc(C(F)(F)F)c3)C2)CCCCC1 [Compound 657]
- IC50 [1, 4]: 9.32 µM
- IC50 [1, 5]: 2.15 µM
- CAv2.2 IC50 Ratio closed/inact. ([1]; ratio closed/inactivated IC50): 4.3
- IC50 [2, 6]: ≥ 10 µM

SMILES: CC(C)(C[C@H]1C[C@H](NC(=O)[C@H]2CCCC[C@H]2N)C1)S(=O)(=O)c1cccc(C(F)(F)F)c1 [Compound 742]
- IC50 [1, 4]: 3.36 µM
- IC50 [1, 5]: 1.05 µM
- CAv2.2 IC50 Ratio closed/inact. ([1]; ratio closed/inact.): 3.2
- IC50 [3, 8]: 10 µM

SMILES: N[C@@H]1CCCC[C@H]1C(=O)NC[C@H]1C[C@H](S(=O)(=O)c2cccc(Cl)c2)C1 [Compound 777]
- IC50 [1, 4]: 10 µM
- IC50 [1, 5]: ≥ 10 µM
- CAv2.2 IC50 Ratio closed/inact. ([1]; ratio closed/inact.): 1
- IC50 [3, 8]: 10 µM

SMILES: N[C@@H]1CCCC[C@@H]1C(=O)NC[C@H]1C[C@H](S(=O)(=O)c2cccc(OC(F)(F)F)c2)C1 (single isomer, unassigned) [Compound 700]
- IC50 [1, 4]: 3.55 µM
- IC50 [1, 5]: 1.25 µM
- CAv2.2 IC50 Ratio closed/inact. ([1]; ratio closed/inactivated IC50): 2.8
- IC50 [3, 8]: 10 µM

SMILES: CC(C)([C@H]1C[C@H](NC(=O)c2ccc(Cl)cc2S(C)(=O)=O)C1)S(=O)(=O)c1cccc(C(F)(F)F)c1 [Compound 679]
- IC50 [1, 4]: 10 µM
- IC50 [1, 5]: 0.48 µM
- CAv2.2 IC50 Ratio closed/inact. ([1]; ratio closed/inactivated IC50): 20.8
- IC50 [3, 7]: ≥ 10 µM
- IC50 [3, 8]: 10 µM
- CAv3.2 IC50 Ratio closed/inact. [3, 9]: 1

SMILES: NC1(CC(=O)NC[C@H]2C[C@H](S(=O)(=O)c3cccc(Cl)c3)C2)CCCCC1 [Compound 776]
- IC50 [1, 4]: 10 µM
- IC50 [1, 5]: 9.37 µM
- CAv2.2 IC50 Ratio closed/inact. ([1]; ratio closed/inact.): 1.1
- IC50 [3, 8]: 10 µM

SMILES: O=C(NC[C@H]1C[C@H](S(=O)(=O)c2cccc(C(F)(F)F)c2)C1)c1ncc(C(F)(F)F)cn1 [Compound 574]
- IC50 [1, 4]: 10 µM
- IC50 [1, 5]: 1.29 µM
- CAv2.2 IC50 Ratio closed/inact. ([1]; ratio closed/inactivated IC50): 7.8

SMILES: N[C@H]1CCCC[C@@H]1C(=O)NC[C@H]1C[C@H](S(=O)(=O)c2cccc(OC(F)(F)F)c2)C1 [Compound 713]
- IC50 [3, 8]: 10 µM

SMILES: Cc1nc(S(=O)(=O)N[C@H]2C[C@@H](C(C)(C)S(=O)(=O)c3cccc(C(F)(F)F)c3)C2)cn1C [Compound 631]
- IC50 [1, 5]: 6.9 µM
- CAv2.2 IC50 Ratio closed/inact. ([1]; ratio closed/inactivated IC50): 1.4

SMILES: CC(C)([C@H]1C[C@@H](NC(=O)CC2(N)CCCCC2)C1)S(=O)(=O)c1cccc(C(F)(F)F)c1 [Compound 652]
- IC50 [1, 4]: 8.87 µM
- IC50 [1, 5]: 1.19 µM
- CAv2.2 IC50 Ratio closed/inact. ([1]; ratio closed/inactivated IC50): 7.5
- IC50 [3, 8]: 10 µM

SMILES: N[C@@H]1CCCC[C@@H]1C(=O)NC[C@H]1C[C@H](S(=O)(=O)c2cc(F)cc(C(F)(F)F)c2)C1 (single isomer, unassigned) [Compound 707]
- IC50 [1, 4]: 10 µM
- IC50 [3, 8]: 10 µM
